Data published in patent publication US8999925B2 (priority 2013, dated 2015).

What was measured:
[1] = system: POPC LUVs or purified PICV
[2] = system: Tamiami virus (TAMV); assay type: cell-based
[3] = system: pseudotyped VSV expressing LASV GPC (VSVΔLASV); assay type: cell-based
[4] = system: vesicular stomatitis virus (VSV); assay type: cell-based
[5] = system: herpes simplex virus-1 (HSV-1, McIntyre strain); assay type: cell-based
[6] = system: measles virus (MV); assay type: cell-based
[7] = system: R18-labeled PICV; assay type: biochemical
[8] = system: Purified PICV
[9] = system: PICV; assay type: cell-based
[10] = system: PICV (CoAn 3739)

Row | Compound | DPH anisotropy [1] | plaque reduction [2] [%] | plaque reduction [3] [%] | inhibition of plaque formation [4] | inhibition of plaque formation [5] | inhibition of plaque formation [6] | dequenching of PICV pre-incubated at pH 5.0 prior to labeling ([7]; pH 5) | dequenching of R18-labeled virus ([7]; pH 7.4) | presence of pre-fusion glycoprotein spikes (cryo-EM) [8] | size distribution of viral particles (cryo-EM) [8] | TMA-DPH anisotropy [1] | effect on viral infectivity [9] | effect on viral infectivity (plaque number) [9] | peptide concentration giving complete inhibition of plaque formation [10] | IC50 ([10]; 1 h) [µM]
1 | PGGYALEQWAIIWAGIKAF [Peptide 8] | purely incidental alterations in acyl chain packing | – | – | – | – | – | – | – | – | – | – | – | – | – | –
2 | CC[C@H](C)[C@H](NC(=O)[C@H](CC(C)C)NC(=O)CNC(=O)[C@H](CC(N)=O)NC(=O)[C@@H](NC(=O)[C@@H](NC(=O)[C@H](CCCCN)NC(=O)[C@H](CCCCN)NC(=O)[C@H](Cc1ccccc1)NC(=O)[C@H](CC(C)C)NC(=O)[C@H](CC(N)=O)NC(=O)[C@@H](N)CC(C)C)[C@@H](C)O)[C@@H](C)CC)C(=O)N[C@@H](CO)C(=O)N[C@@H](CC(=O)O)C(=O)N[C@@H](CO)C(=O)N[C@@H](CC(C)C)C(=O)N[C@H](C(=O)N[C@H](C(=O)N[C@@H](CCCNC(=N)N)C(=O)O)[C@@H](C)CC)C(C)C [Peptide 1] | Concentration-dependent increases in probe anisotropy values were observed to a greater degree with Peptide 1 than with Peptide 8 | 45.0±5.0 | 63.8±13.0 | not significantly inhibited | not significantly inhibited | not significantly inhibited | did not induce significant dequenching | extensive dequenching | Disappearance of pre-fusion glycoprotein spikes was also observed in a significant number of particles | greater shift toward larger particles | increased substantially | no significant antiviral activity or increase in viral infectivity was observed | no increase in plaque number was observed | approximately 20 μM | 7.05 ± 2.19
